Laboratory results reported in patent publication US10695319B2, “Glucose conjugates of triptolide, analogs and uses thereof” (The Johns Hopkins University, priority 2016, dated 2020).

Experiments:
[1] = Preliminary experiments on tolerable treatment dose; type: in vivo; settings: mice
Method: (§1) The in vivo antitumor activity of the glucose-triptolide conjugate G4 was determined using an established metastatic prostate cancer model (Reference 1). In this model, the luciferase-expressing prostate cancer line PC3/ML was injected into NOD/SCID/IL2rγ^null (NSG) mice through the tail vein. The metastasis of the injected prostate cancer cells into liver, kidney, lung and bone can be monitored in live animals by bioluminescent imaging (BLI). It was shown that this is a reliable model with reproducible liver metastasis and all animals succumb by Week 7 after injection of cells (or Week 4 after initiation of treatments). […] Three weeks after cell injection, each compound was given once daily by IP at those doses for a total of 4 weeks. The surviving animals were continuously monitored upon termination of compound administration.

[2] = tested on: luciferase-expressing prostate cancer line PC3/ML; assay: Metastatic prostate cancer model, bioluminescent imaging; type: in vivo, NOD/SCID/IL2rγ^null (NSG) mice; settings: triptolide 0.2 mg/kg, G4 1 mg/kg
Method: FIG. 3. Effects of triptolide and glucose-triptolide conjugate G4 in a metastatic mouse prostate cancer model. The injected prostate cancer cells expressed luciferase, which was detected by imaging of live animals.
as §1

CC(C)[C@]12O[C@H]1[C@@H]1O[C@]13[C@]1(O[C@H]1C[C@H]1C4=C(CC[C@@]13C)C(=O)OC4)[C@@H]2O [triptolide]
tolerable treatment dose [1]: 0.2 mg/kg | tumor after termination of compound administration ([2]; after 4 weeks of once daily IP, till end of experiment): tumors immediately returned | tumor cells at the end of Week 4 of treatment ([2]; once daily IP for 4 weeks, BLI): undetectable tumor cells
